Measured values from BindingDB's records for doi:10.7270/Q2B27SRF (Broad Institute, 2010).

Target: Serine/threonine-protein kinase 33 (Homo sapiens, UniProt Q9BYT3)
Assay: inhibition of STK33 phosphorylation of MBP – biochemical, luminescence, cell-free, retest, dose response (AID 2821)

Sequence of Serine/threonine-protein kinase 33 (Q9BYT3 whole entry): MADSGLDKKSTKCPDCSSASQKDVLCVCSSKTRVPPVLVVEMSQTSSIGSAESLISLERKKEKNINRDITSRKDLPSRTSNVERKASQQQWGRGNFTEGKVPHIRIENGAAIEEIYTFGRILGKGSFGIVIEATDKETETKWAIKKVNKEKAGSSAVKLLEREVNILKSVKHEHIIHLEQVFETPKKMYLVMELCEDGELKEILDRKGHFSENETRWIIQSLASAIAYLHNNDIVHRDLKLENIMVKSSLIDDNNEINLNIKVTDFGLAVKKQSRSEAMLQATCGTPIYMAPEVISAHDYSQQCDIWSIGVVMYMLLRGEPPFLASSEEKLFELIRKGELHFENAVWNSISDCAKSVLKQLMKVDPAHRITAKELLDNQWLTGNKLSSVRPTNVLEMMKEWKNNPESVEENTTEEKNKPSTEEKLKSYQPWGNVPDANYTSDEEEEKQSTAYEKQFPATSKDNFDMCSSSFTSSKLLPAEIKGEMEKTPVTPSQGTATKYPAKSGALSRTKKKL

| Structure (SMILES) | EC50 |
| --- | --- |
| O=c1c(O)c(-c2cc(O)c(O)c(O)c2)oc2cc(O)cc(O)c12 | 18 µM |
| COc1c(O)cc2oc(-c3ccc(O)c(O)c3)cc(=O)c2c1O | 11 µM |
| COC1(OC)N=C(N)C2(C#N)C(c3ccc4c(c3)OCO4)C12C#N (configuration not stated) | > 120 µM |
| COc1cc(N=CC2C(=O)Nc3ccccc32)cc(OC)c1OC (configuration not stated) | 4.93 µM |
| COc1ccc(N=CC2C(=O)Nc3ccccc32)cc1OC (configuration not stated) | 5.22 µM |
| Oc1cc(O)cc(/C=C/c2ccc(O)c(O)c2)c1 | 12.8 µM |
| COc1cc(C=CC(=O)CC(=O)C=Cc2ccc(O)c(OC)c2)ccc1O | 0.71 µM |
| CC(C)n1cnc2c(Nc3cccc(Cl)c3)nc(N(CCO)CCCO)nc21 | 2.86 µM |
| CC(C)n1cnc2c(Nc3cccc(Cl)c3)nc(NCCCO)nc21 | 1.84 µM |
| Nc1c(C(=O)O)ccc2c1C(=O)c1ccccc1C2=O | 22.2 µM |
| COc1cc(C=NNC2=c3ccccc3=NC2=O)ccc1O | 9.23 µM |
| COc1ccc(C(=O)NNC(=O)c2ccccn2)cc1 | 21.8 µM |
| COc1ccc(NC(=O)c2cc([N+](=O)[O-])ccc2O)cc1 | 18.6 µM |
| CCC(Sc1ccc2nnc(-c3ccc(OC)c(OC)c3)n2n1)C(=O)O (configuration not stated) | 13.2 µM |
| COC(=O)c1ccccc1NC(=O)N1CCN(C/C=C/c2ccccc2)CC1 | 8.73 µM |
| Cc1nn(C)cc1/C=C/C(=O)c1ccc(O)cc1 | 29 µM |
| O=C1c2ccccc2C(=O)C1c1ccccn1 | 5.49 µM |
| Cc1ccc(NC(=S)Nc2ccc3cn[nH]c3c2)c(C)c1 | > 120 µM |
| NS(=O)(=O)c1ccc2c(c1)C(N=O)c1cc(S(N)(=O)=O)ccc1-2 | 4.91 µM |

| Structure (SMILES) | EC50 |
| --- | --- |
| O=c1c2ccccc2sc2ccc(NCCCN3CCOCC3)cc12 | 16.8 µM |
| CNC(=S)Nc1cccc(-c2cnc3ccccc3n2)c1 | > 120 µM |
| Oc1ccc(Nc2nc(-c3ccccc3O)nc3ccccc23)cc1 | 2.43 µM |
| COc1ccc(C(=O)ON=C(N)c2ccccc2)cc1 | > 120 µM |
| CNC(=O)c1cnc2ccc(S(=O)(=O)Nc3ccccc3F)cc2c1O | > 120 µM |
| Cc1cccc(N2CCN(CCCNC(=O)c3ccc(NC(=O)C4=CSCCO4)cc3)CC2C)c1 (configuration not stated) | 7.97 µM |
| O=c1c2ccccc2oc2ccc(NCCCN3CCOCC3)cc12 | 3.82 µM |
| CN(C)C/C=C/C(=O)Nc1cccc(-c2c[nH]c3ncnc(Oc4ccc(NC(=O)CC(=O)Nc5ccc(F)cc5)cc4F)c23)c1 | 6.32 µM |
| CCN1C(=O)CC(c2ccccc2)N(C2CCCC2)c2nc(Nc3ccc(C(=O)NC4CCN(C)CC4)cc3OC)ncc21 (configuration not stated) | 7.93 µM |
| COc1ccc2c(c1)C(=Cc1cnc[nH]1)C(=O)N2 | 7.73 µM |
| CN(C)c1cc2c(c(N(C)C)c1)C(=O)c1ccccc1C2=O [1,3-bis(dimethylamino)-9,10-anthraquinone] | 23.8 µM |
| Oc1ccc(C=NNC(=S)NN=Cc2ccc(O)cc2)cc1 [1,3-bis[(4-oxo-1-cyclohexa-2,5-dienylidene)methylamino]thiourea] | 40.9 µM |
| COc1cc(C)c2c(c1C=O)Oc1c(c(C)c(O)c3c1C(O)OC3=O)OC2=O (configuration not stated) [1,4-Dihydroxy-10-methoxy-5,8-dimethyl-3,7-dioxo-1,3-dihydro-7H-benzo[e]furo[3',4':3,4]benzo[b][1,4]dioxepine-11-carbaldehyde] | 32 µM |
| Nc1ccc(N)c2c(O)c3ccccc3c(O)c12 [1,4-bis(azanyl)-2,3-dihydroanthracene-9,10-dione] | 23.8 µM |
| Nc1cc(C(=O)O)c(N)c2c1C(=O)c1ccccc1C2=O [1,4-bis(azanyl)-9,10-bis(oxidanylidene)anthracene-2-carboxylic acid] | 3.55 µM |
| S=C(NCc1ccccc1)Nc1ccc2cn[nH]c2c1 [1-(1H-indazol-6-yl)-3-(phenylmethyl)thiourea] | > 120 µM |
| CCCn1c2ccc(C(C)N=O)cc2c2cc(C(C)N=O)ccc21 (configuration not stated) [1-[6-(1-hydroxyiminoethyl)-9-propyl-3-carbazolyl]ethanone oxime] | 2.48 µM |
| Nc1c(O)ccc2c1C(=O)c1ccccc1C2=O [1-amino-2-hydroxy-9,10-anthraquinone] | 34.7 µM |
| CCCCCCCCCCCCCCCCn1cc[n+](C)c1 [1-cetyl-3-methyl-imidazol-3-ium;bromide] | > 120 µM |

| Structure (SMILES) | EC50 |
| --- | --- |
| CCCCCCCCCCCCCCCC[n+]1cccc2ccccc21 [1-cetylquinolin-1-ium;iodide] | > 120 µM |
| CCn1c(C)nc2cc(-c3nc4n(n3)Cc3ccccc3-4)ccc21 [2-(1-ethyl-2-methyl-5-benzimidazolyl)-5H-[1,2,4]triazolo[5,1-a]isoindole] | 11 µM |
| CCN1C=CC(=C2C(=O)c3ccccc3C2=O)C=C1 [2-(1-ethyl-4-pyridinylidene)indene-1,3-dione] | 14 µM |
| CCCN1C=CC(=C2C(=O)c3ccccc3C2=O)C=C1 [2-(1-propyl-4-pyridinylidene)indene-1,3-dione] | 8.93 µM |
| O=C1c2ccccc2C(=O)C1c1ccncc1 [2-(1H-pyridin-4-ylidene)indane-1,3-quinone] | 10.3 µM |
| COc1ccccc1Nc1oc2cc(=O)ccc-2cc1C(N)=O [2-(2-methoxyanilino)-7-oxo-1-benzopyran-3-carboxamide] | 30.9 µM |
| O=c1c(O)c(-c2ccc(O)c(O)c2)oc2cc(O)cc(O)c12 [2-(3,4-dihydroxyphenyl)-3,5,7-trihydroxy-chromone;hydrate] | 12.4 µM |
| COc1cc(C=C2SC(Nc3ccc(Cl)c(C(=O)O)c3)=NC2=O)c(Br)c(Br)c1O [2-Chloro-5-[5-(2,3-dibromo-4-hydroxy-5-methoxy-benzylidene)-4-oxo-thiazolidin-2-ylideneamino]-benzoic acid] | 15.9 µM |
| CCN(CC)c1ccc(/C=C2\C(=O)c3ccc(C(=O)O)cc3C2=O)cc1 [2-[1-(4-Diethylamino-phenyl)-meth-(E)-ylidene]-1,3-dioxo-indan-5-carboxylic acid] | 5.66 µM |
| CN1CCCC1CCNc1ccc2sc3ccccc3c(=O)c2c1 (configuration not stated) [2-[2-(1-methyl-2-pyrrolidinyl)ethylamino]-9-thioxanthenone] | 16.6 µM |
| O=C(CSc1nc(N2CCCCC2)nc(N2CCCCC2)n1)c1ccccc1 [2-[[4,6-di(piperidin-1-yl)-1,3,5-triazin-2-yl]sulfanyl]-1-phenyl-ethanone] | > 120 µM |
| N#C/C(=C/C=C/c1ccccc1)C(=O)Nc1ccccc1 [2-cyano-N,5-diphenyl-2,4-pentadienamide] | > 120 µM |
| c1ccc2c3c([nH]c2c1)-c1n[nH]cc1CC3 [3,4,16-triazatetracyclo[7.7.0.0^{2,6}.0^{10,15}]hexadeca-1(9),2,5,10,12,14-hexaene] | 61 µM |
| COc1cc2c(ccc3cc(OC)c(OC)c(O)c32)cc1O [3,6,7-trimethoxyphenanthrene-2,5-diol] | 27.4 µM |
| CCOc1ccc(-c2ccc(SC)nn2)cc1 [3-(4-ethoxyphenyl)-6-(methylthio)pyridazine] | > 120 µM |
| O=C(CCc1ccc(O)cc1)c1c(O)cc(O)cc1O [3-(4-hydroxyphenyl)-1-(2,4,6-trihydroxyphenyl)propan-1-one] | 21.4 µM |
| CCSc1nc(N2CCOCC2)c2c(c1C#N)CCCC2 [3-(ethylthio)-1-(4-morpholinyl)-5,6,7,8-tetrahydroisoquinoline-4-carbonitrile] | 8.86 µM |
| NC(=O)c1sc2nc(-c3ccco3)ccc2c1N [3-Amino-6-furan-2-yl-thieno[2,3-b]pyridine-2-carboxylic acid amide] | 25.5 µM |
| Cc1cc(C=C2C(=O)c3ccccc3C2=O)c(C)n1-c1cccc(C(=O)O)c1 [3-[3-[[1,3-bis(oxidanylidene)inden-2-ylidene]methyl]-2,5-dimethyl-pyrrol-1-yl]benzoic acid] | > 120 µM |
